Results from publication PMC11881136, “Development of a Novel ^18F-Labeled Radioligand for Imaging Phosphodiesterase 7 with Positron Emission Tomography” (Molecular Pharmaceutics, 2025).
Read-outs that look alike come from different tables or passages of the source. Values belong to the compound of their own block, whether it stands above or below them.

Assays:
[1] = system: PDE7; experiment: Phosphodiesterase 7 inhibition assay (Eurofins); type: biochemical; conditions: for Inhibiton at 0.5 nM: PDE7, 0.5 nM
Method: (§1) The inhibition assay of phosphodiesterase 7 with compounds 1–7 was performed by Eurofins. The inhibition assay of other phosphodiesterases with compound 7 was performed by Reaction Biology Corporation at a concentration of 3 μM.

[2] = set-up: method as in PMID 32246980; conditions: cited from earlier work
[3] = molecular target: PDE7; set-up: method as in PMID 32246980; conditions: read-out: binding affinity KD toward PDE7; cited from earlier work
[4] = system: 66 major CNS targets; experiment: Off-target binding profile against 66 major CNS targets; conditions: 10 μM; except 5-HT2B and Sigma1
[5] = system: other PDEs subfamilies; experiment: Inhibition assay of other phosphodiesterases (Reaction Biology Corporation); type: biochemical; conditions: 3 μM; other than PDE4
Method: as §1

[6] = system: PDE4; experiment: Inhibition assay of other phosphodiesterases: PDE4; type: biochemical; conditions: 3 μM
Method: as §1

[7] = molecular target: 5-HT2B (Homo sapiens, UniProt P41595); experiment: Off-target binding: 5-HT2B
5-HT2B, sequence (P41595 whole entry, species assumed): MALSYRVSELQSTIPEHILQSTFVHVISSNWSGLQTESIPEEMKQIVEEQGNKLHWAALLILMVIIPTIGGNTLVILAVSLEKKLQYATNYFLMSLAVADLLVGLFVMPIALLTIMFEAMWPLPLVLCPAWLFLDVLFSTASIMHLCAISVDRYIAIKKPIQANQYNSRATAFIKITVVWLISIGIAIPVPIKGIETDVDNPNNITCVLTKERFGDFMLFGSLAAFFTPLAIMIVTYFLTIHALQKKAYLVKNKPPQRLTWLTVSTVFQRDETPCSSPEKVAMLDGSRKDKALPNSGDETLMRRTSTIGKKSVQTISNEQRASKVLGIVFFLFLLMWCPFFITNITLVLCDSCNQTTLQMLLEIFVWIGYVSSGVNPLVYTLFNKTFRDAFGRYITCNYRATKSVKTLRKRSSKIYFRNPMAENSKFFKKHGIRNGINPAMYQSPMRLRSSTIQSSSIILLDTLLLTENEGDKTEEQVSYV

[8] = molecular target: Sigma1 (Homo sapiens, UniProt Q99720); experiment: Off-target binding: Sigma1
Sigma1, sequence (Q99720 whole entry): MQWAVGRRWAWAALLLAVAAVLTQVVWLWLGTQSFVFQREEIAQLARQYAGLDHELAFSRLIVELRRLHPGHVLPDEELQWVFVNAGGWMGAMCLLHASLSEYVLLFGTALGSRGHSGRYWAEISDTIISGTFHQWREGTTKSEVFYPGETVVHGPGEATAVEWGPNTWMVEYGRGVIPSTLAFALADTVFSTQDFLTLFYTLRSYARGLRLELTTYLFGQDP

[9] = system: PDE7; experiment: In vitro autoradiography in rat brain sections; type: binding; conditions: blocker 10 μM
Method: Autoradiography studies were conducted as previously reported.[24],[25] In brief, SD rat brain sections ([…]) were preincubated with buffer (Tris-HCl, 50 mM) at ambient temperature for 20 min and then incubated with [^18F]7 (1 μCi/mL) for 30 min. After that, the brain sections were washed with cold buffer and water, dried with cold air, and exposed to the phosphor plate (12 h). In blocking studies, brain sections were incubated with [^18F]7 in the presence of compound 7 (10 μM) or P7–2104 (10 μM).

[10] = Log D, shake flask method; type: physicochemical; conditions: n-octanol/PBS
Method: PBS buffer (0.01 M) and n-octanol were presaturated with each other overnight before the measurement. The PDE7 ligand [^18F]7, PBS (0.01 M, 5 mL), and n-octanol (5 mL) were combined and vortexed for 3 min, and then centrifuged (∼14 000 rpm, 5 min). The PBS fraction and n-octanol fraction were weighted and counted by γ counter. The log D was calculated as log[(radioactivityn-octanol/weightn-octanol)/(radioactivityPBS/weightPBS)].

[11] = molecular target: T1, PDE4B (Homo sapiens, UniProt Q07343); experiment: Inhibition assay of other phosphodiesterases: PDE4B; type: biochemical
T1 construct: purchased Reaction Biology Corporation
T1 sequence (Q07343 whole entry, species assumed): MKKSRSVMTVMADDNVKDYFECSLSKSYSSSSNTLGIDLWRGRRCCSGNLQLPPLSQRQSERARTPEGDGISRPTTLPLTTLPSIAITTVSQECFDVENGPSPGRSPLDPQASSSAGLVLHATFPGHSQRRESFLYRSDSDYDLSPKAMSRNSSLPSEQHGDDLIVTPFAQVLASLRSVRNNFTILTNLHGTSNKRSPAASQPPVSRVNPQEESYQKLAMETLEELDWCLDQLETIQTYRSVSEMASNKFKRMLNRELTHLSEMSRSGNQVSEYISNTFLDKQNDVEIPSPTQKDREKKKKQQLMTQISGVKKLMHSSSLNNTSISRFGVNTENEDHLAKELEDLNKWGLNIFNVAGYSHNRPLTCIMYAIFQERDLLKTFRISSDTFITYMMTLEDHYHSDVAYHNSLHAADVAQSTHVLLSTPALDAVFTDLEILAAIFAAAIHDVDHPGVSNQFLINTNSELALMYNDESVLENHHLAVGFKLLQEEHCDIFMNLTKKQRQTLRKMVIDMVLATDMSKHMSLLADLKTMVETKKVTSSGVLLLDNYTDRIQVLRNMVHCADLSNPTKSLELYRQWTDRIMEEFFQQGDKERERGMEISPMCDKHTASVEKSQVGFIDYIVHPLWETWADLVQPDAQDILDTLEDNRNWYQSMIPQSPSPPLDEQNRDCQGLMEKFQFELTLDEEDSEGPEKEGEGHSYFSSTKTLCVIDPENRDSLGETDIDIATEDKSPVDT
Method: as §1

[12] = system: PDE7; experiment: PET imaging in rat brains; type: in vivo
Method: PET imaging was carried out as previously reported.[26] [^18F]7 (30–40 uCi) was administered to SD rats via the tail vein, and dynamic scans were conducted with a G8 scanner (Sofie) for 1 h (n = 4). In blocking studies, elacridar (5 mg/kg) was administered intravenously at 20 min before the administration of [^18F]7, and P7–2104 or 7 (3 mg/kg) was administered intravenously at 10 min before the administration of [^18F]7 (n = 3). PET data were analyzed with PMOD (PMOD Technologies LLC, Switzerland).

[13] = Ex vivo whole-body biodistribution in CD-1 mice; set-up: species or system mouse
Method: Whole-Body biodistribution was carried out as previously reported.[27],[28] [^18F]7 (10 μCi/100 μL) was administered intravenously to CD-1 mice, which were sacrificed at 5, 15, 30, and 60 min after administration of [^18F]7 (n = 3). Tissues of interest were collected, weighted, and measured by a γ counter.

[14] = In vitro stability in mouse serum; type: in vitro ADME; conditions: up to 60 or 120 min
[15] = In vitro stability in rat serum; type: in vitro ADME; conditions: up to 60 or 120 min
[16] = In vitro stability in human serum; type: in vitro ADME; conditions: up to 60 or 120 min
[17] = In vitro stability in NHP serum; type: in vitro ADME; conditions: up to 60 or 120 min
[18] = In vitro stability in formulation solution (saline); type: physicochemical; conditions: up to 60 or 120 min
[19] = Radiometabolic analysis in rats; type: in vivo; conditions: rat, 30 min post administration
Method: [^18F]7 was injected via the tail vein of SD rats and then euthanized 30 min after administration of [^18F]7 (0.1 mCi per rat, n = 2). The brain was collected, homogenized, and cold acetonitrile (0.2 mL) was added then centrifuged (14 000g, 5 min) at 4 °C. This step was repeated until there was no obvious precipitation formed. Then the supernatant was injected into a radioHPLC with unlabeled 7 as the internal standard. Both [^18F]7 and its ^18F-metabolites were collected by HPLC and then measured by γ counter. The same procedure was conducted for plasma.

[20] = system: PDE7; set-up: method as in PMID 26330158; conditions: read-out: PDE7 inhibitory potency IC50; cited from earlier work

Structure (SMILES): CN(C)C(=O)c1c(F)cccc1Oc1ccc(Cl)c2c1C1(CCCCC1)OC(=O)N2 [Compound 4, 2-((8-Chloro-2-oxo-1,2-dihydrospiro[benzo[d][1,3]oxazine-4,1′-cyclohexan]-5-yl)oxy)-6-fluoro-N,N-dimethylbenzamide]
Inhibiton at 0.5 nM [1]: -10%

Structure (SMILES): CN(C)C(=O)c1cc(F)ccc1Oc1ccc(Cl)c2c1C1(CCCCC1)OC(=O)N2 [Compound 3, 2-((8-Chloro-2-oxo-1,2-dihydrospiro[benzo[d][1,3]oxazine-4,1′-cyclohexan]-5-yl)oxy)-5-fluoro-N,N-dimethylbenzamide]
Inhibiton at 0.5 nM [1]: -17%

Structure (SMILES): CN(C)C(=O)c1ccc(F)cc1Oc1ccc(Cl)c2c1C1(CCCCC1)OC(=O)N2 [Compound 2, 2-((8-Chloro-2-oxo-1,2-dihydrospiro[benzo[d][1,3]oxazine-4,1′-cyclohexan]-5-yl)oxy)-4-fluoro-N,N-dimethylbenzamide]
Inhibiton at 0.5 nM [1]: 6%

Structure (SMILES): O=C1Nc2c(Cl)ccc(OCC[18F])c2C2(CCCCC2)N1 [[^18F]MICA-003]
IC50 [20]: 17 nM

Now from value to compound, other results behind:

IC50 [1]: 0.41 nM
Inhibiton at 0.5 nM [1]: 50%
Structure (SMILES): CN(C)C(=O)c1cccc(F)c1Oc1ccc(Cl)c2c1C1(CCCCC1)OC(=O)N2 [Compound 1, 2-((8-Chloro-2-oxo-1,2-dihydrospiro[benzo[d][1,3]oxazine-4,1′-cyclohexan]-5-yl)oxy)-3-fluoro-N,N-dimethylbenzamide]
brain uptake [2]: 0.25 %ID/g
Kd [3]: 0.8 nM

off-target binding (>50% inhibition) against 66 major CNS targets [4]: No significant off-target binding
Ki [7]: 3360 nM
Ki [8]: 7410 nM
IC50 [1]: 0.18 nM
selectivity for PDE7 over other PDE subfamilies [1]: > 400 fold
Inhibiton at 0.5 nM [1]: 51%
logD [10]: 3.27
IC50 [11]: 77.3 nM
PDE4B inhibition ([11]; 3 μM): 92 % inhibition
Structure (SMILES): O=C1Nc2c(Cl)ccc(Oc3c(F)cccc3C(=O)N3CC(F)C3)c2C2(CCCCC2)O1 [Compound 7, 8-Chloro-5-(2-fluoro-6-(3-fluoroazetidine-1-carbonyl)phenoxy)spiro[benzo[d][1,3]oxazine-4,1′-cyclohexan]-2(1H)-one]
inhibition of other PDEs subfamilies [5]: < 50 % inhibition
activity against PDE4 [6]: moderately active
reduction of [18F]7 radioactivity signal in striatum (autoradiography blocking) [9]: 56%
reduction of [18F]7 SUVpeak in striatum (PET blocking) ([12]; blocker 3 mg/kg i.v. with elacridar 5 mg/kg, SD rats): 51%

bone uptake at 5 min ([13]; 5 min): 1.6 %ID/g
bone uptake at 60 min ([13]; 60 min): 0.3 %ID/g
initial radioactivity in liver, small intestine, kidney, pancreas, lung, and heart ([13]; i.v., initially): > 5 %ID/g
brain uptake (biodistribution) ([13]; initially): low uptake
IC50 [1]: 0.18 nM
selectivity for PDE7 over other PDE subfamilies [1]: > 400 fold
intact parent fraction in brain [19]: 92%
intact parent fraction in plasma [19]: 67%
SUVpeak in striatum after elacridar ([12]; SD rats, elacridar 5 mg/kg i.v. 20 min before tracer): 2.8
SUVpeak in striatum, baseline ([12]; SD rats, i.v., baseline): 0.35
increase of SUVpeak in striatum by elacridar ([12]; elacridar 5 mg/kg vs baseline): 700%
Structure (SMILES): O=C1Nc2c(Cl)ccc(Oc3c(F)cccc3C(=O)N3CC([18F])C3)c2C2(CCCCC2)O1 [[^18F]7]
in vitro stability in mouse serum [14]: no obvious decomposition or metabolite was observed
in vitro stability in rat serum [15]: no obvious decomposition or metabolite was observed
in vitro stability in human serum [16]: no obvious decomposition or metabolite was observed
in vitro stability in NHP serum [17]: no obvious decomposition or metabolite was observed
in vitro stability in saline [18]: no obvious decomposition or metabolite was observed

Inhibiton at 0.5 nM [1]: -13%
Structure (SMILES): CN(C(=O)c1cccc(F)c1Oc1ccc(Cl)c2c1C1(CCCCC1)OC(=O)N2)C1CC1 [Compound 6, 2-((8-Chloro-2-oxo-1,2-dihydrospiro[benzo[d][1,3]oxazine-4,1′-cyclohexan]-5-yl)oxy)-N-cyclopropyl-3-fluoro-N-methylbenzamide]

IC50 [1]: 0.04 nM
Inhibiton at 0.5 nM [1]: 68%
Structure (SMILES): O=C1Nc2c(Cl)ccc(Oc3c(F)cccc3C(=O)N3CCC3)c2C2(CCCCC2)O1 [Compound 5, 5-(2-(Azetidine-1-carbonyl)-6-fluorophenoxy)-8-chlorospiro[benzo[d][1,3]oxazine-4,1′-cyclohexan]-2(1H)-one]
